Reference: patent US20110257176A1, “NITROGEN HETEROCYCLE DERIVATIVES AS PROTEASOME MODULATORS” (INSTITUT NATIONAL DE LA SANTE ET DE LA RECHERCHE MEDICALE …, priority 2008, published 2011)
Where a SMILES comes first, the peptide text is derived from it. The star is where a group is joined. Cbz = O=C(OCc1ccccc1)*

What was measured:
[1] = test system: rabbit reticulocyte 20S proteasome, trypsin-like (T-L) activity; experiment: 20S proteasome trypsin-like (T-L) activity, Boc-LRR-AMC hydrolysis; assay type: biochemical; parameters: key to Inhibition of trypsin-like activity (NI): NI: No Inhibition; details: rabbit 20S proteasome; for Inhibition of trypsin-like activity (NI): screened at 100 μM and 50 μM
Protocol: (§1) Rabbit erythrocyte 20S proteasome was obtained from Boston Biochem, Cambridge, USA. The fluorogenic substrates Suc-LLVY-AMC, Boc-LRR-AMC and Z-LLE-βNA used to measure the proteasome activities CT-L, T-L and PA respectively were purchased from Bachem (France). Other reagents and solvents were purchased from commercial sources. Fluorescence was measured using a BMG Fluostar microplate reader.
(§2) Compounds 1-23 were tested for their potential to inhibit the CT-L, T-L and PA activities of the rabbit reticulocyte 20S proteasome. Enzyme activities were determined by monitoring the hydrolysis of the appropriate fluorogenic substrate (λexc=360, λem=465 nm for AMC substrates, and λexc=340, λem=405 nm for the βNA substrate) for 1 h at 37° C.
(§3) In the in vitro screening, each compound was tested in duplicate against the three activities, at 100 μM and 50 μM in the corresponding buffer. The buffer were (pH 8): 50 mM Tris, 150 mM NaCl, 10% (v/v) glycerol, 0.025% (w/v) SDS, and 3% (v/v) DMSO (CT-L and PA activities); 50 mM Tris, 150 mM NaCl, 10% (v/v) glycerol, and 3% (v/v) DMSO (T-L activity).
(§4) The inhibitory activity of compounds is expressed as IC50, which corresponds to the concentration of proteasome inhibitor leading to a loss of activity of 50%. The values of IC50 were calculated by fitting the experimental data to equation 1: % Inhibition=100×(1−Vi/V0)=100 [I]0/(IC50+[I]0), or equation 2: % Inhibition=100 [I]0^nH/(IC50^nH+[I]0^nH), where Vi is the initial rate in the presence of the inhibitor, V0 is the initial rate in the absence of the inhibitor, [I]0 is the inhibitor concentration, nH is the Hill number (FIG. 1).

[2] = target: rabbit reticulocyte 20S proteasome, post-acid (PA) activity (Oryctolagus cuniculus, UniProt G1T235); experiment: 20S proteasome post-acid (PA) activity, Z-LLE-βNA hydrolysis; assay type: biochemical; parameters: key to Inhibition of post-acid activity (NI): NI: No Inhibition; details: rabbit 20S proteasome; for Inhibition of post-acid activity (NI): screened at 100 μM and 50 μM
Protocol: as §1, §2, §3, §4

[3] = target: T1, rabbit reticulocyte 20S proteasome, chymotrypsin-like (CT-L) activity (UniProt G1T4Q9); experiment: 20S proteasome chymotrypsin-like (CT-L) activity, Suc-LLVY-AMC hydrolysis; assay type: biochemical; details: rabbit 20S proteasome, pH 8, 37° C.
T1 construct: IC50 on chymotrypsin-like activity; other: rabbit 20S proteasome, pH 8, 37° C; Rabbit erythrocyte 20S proteasome was obtained from Boston Biochem, Cambridge, USA
Protocol: as §1, §2, §3, §4

HeLa cells = experiment: Cell viability, XTT assay, HeLa; assay type: cell-based; details: Homo sapiens, 48 h, read-out: EC50, concentration inhibiting cell growth by 50%
Protocol: (§5) The cell survival was determined with the XTT assay. Human cells (HeLa from cervical carcinoma and HEK-293 from epithelial kidney) were obtained from Invitrogen (Cergy-Pontoise, France). The cells were grown at 37° C. in DMEM supplemented with 10% fetal bovine serum (Invitrogen) in a humidified atmosphere of 5% CO2 and 95% air.
(§6) 5×10^3 cells in 100 μL culture medium were exposed for 48 h in 96-well plates to increasing concentrations of compounds: 5-100 μM, final concentration of DMSO is 1% (v/v). The culture medium is then replaced by 100 μL of DMEM F12 culture medium devoid of phenol red and containing a mixture of XTT (0.3 mg/mL) and PMS (8.3 nM) (XTT: 2,3-bis[2-methoxy-4-nitro-5-sulfophenyl-2H-tetrazolium-5-carboxyanilide sodium; PMS: phenazine methosulfate, both purchased from Sigma, Saint Quentin Fallavier, France). Cells were then incubated for 3 h at 37° C.
(§7) During this incubation, the mitochondrial deshydrogenases of viable cells hydrolyzed the tetrazolium cycle of XTT, leading to orange formazan crystals soluble in aqueous solution.
(§8) The orange color was measured at 485 nm using a BMG Fluostar microplate reader.
(§9) In control experiments, cells were treated by the vehicule (DMSO) at the same concentration than that used for the inhibitors.
The cytotoxicity activity of drags was expressed as the concentration inhibiting cell growth by 50% (EC50) calculated from the survival curves. […]

[4] = target: T2, human erythrocyte 20S proteasome, chymotrypsin-like (CT-L) activity (Homo sapiens, UniProt P28074); experiment: 20S proteasome chymotrypsin-like (CT-L) activity, Suc-LLVY-AMC hydrolysis; assay type: biochemical; details: pH 7.5
T2 construct: three activities of human erythrocyte 20S proteasome; from tissue; host or cells: human erythrocytes
Protocol: as §1, §4
(§10) Compounds 24, 25 and 31-35 were tested in duplicate against three activities of human erythrocyte 20S proteasome at 100 and 50 μM in the appropriate buffer (pH 7.5): 20 mM Tris HCl, 10% (v/v) glycerol, 0.01% (w/v) SDS and 2% DMSO (CT-L and PA activities); 20 mM Tris HCl, 10% (v/v) glycerol, and 2% DMSO (T-L activity). The inhibitory activities were analyzed as described above for compounds 1-23.

[5] = target: T3, human erythrocyte 20S proteasome, post-acid (PA) activity (Homo sapiens, UniProt P28072); experiment: 20S proteasome post-acid (PA) activity, Z-LLE-βNA hydrolysis; assay type: biochemical; parameters: key: NI: No Inhibition; details: screened at 100 and 50 μM
T3 construct: three activities of human erythrocyte 20S proteasome; from tissue; host or cells: human erythrocytes
Protocol: as §1, §4, §10

HEK-293 cells = experiment: Cell viability, XTT assay, HEK-293; assay type: cell-based; details: Homo sapiens, HEK293, 48 h, read-out: EC50, concentration inhibiting cell growth by 50%
Protocol: as §5, §6, §7, §8, §9
The cytotoxicity activity of drags was expressed as the concentration inhibiting cell growth by 50% (EC50) calculated from the survival curves. The experimental data are fitted to the following equation, describing the relationship between % survival and drug concentration (C):
% cell survival=100−(Emax×C^n)/(C^n+EC50^n)
where C is the drug concentration; Emax is the maximum drug effect (%); EC50 is the concentration that produces one-half of the maximum effect; and n is the Hill constant, which describes the shape of the curve.

[6] = target: T4, human erythrocyte 20S proteasome, trypsin-like (T-L) activity (Homo sapiens, UniProt Q99436); experiment: 20S proteasome trypsin-like (T-L) activity, Boc-LRR-AMC hydrolysis; assay type: biochemical; parameters: key to Inhibition of trypsin-like activity (NI): NI: No Inhibition; details: screened at 100 and 50 μM
T4 construct: three activities of human erythrocyte 20S proteasome; from tissue; host or cells: human erythrocytes
Protocol: as §1, §4, §10

[7] = target: T5, rabbit reticulocyte 20S proteasome, chymotrypsin-like (CT-L) activity (Oryctolagus cuniculus, UniProt G1T4Q9); experiment: 20S proteasome chymotrypsin-like (CT-L) activity, Suc-LLVY-AMC hydrolysis; assay type: biochemical; details: rabbit 20S proteasome, pH 8, 37° C.
T5 construct: IC50 on chymotrypsin-like activity; other: rabbit 20S proteasome, pH 8, 37° C; Rabbit erythrocyte 20S proteasome was obtained from Boston Biochem, Cambridge, USA
T5 sequence (G1T4Q9 1-263): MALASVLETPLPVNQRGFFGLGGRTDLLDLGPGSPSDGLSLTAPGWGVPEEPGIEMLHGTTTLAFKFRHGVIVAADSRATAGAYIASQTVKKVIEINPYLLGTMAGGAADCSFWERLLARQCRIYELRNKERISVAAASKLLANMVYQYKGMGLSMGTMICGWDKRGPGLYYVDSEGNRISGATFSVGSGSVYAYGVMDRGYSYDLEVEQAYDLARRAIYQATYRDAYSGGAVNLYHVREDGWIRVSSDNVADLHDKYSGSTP
Protocol: as §1, §2, §3, §4

[8] = test system: cellular proteasome in HEK-293 cells; experiment: Inhibition of proteasome in a cell assay: accumulation of ubiquitinylated proteins (Western blot); assay type: cell-based, Human; details: 16 h, 10 μM
Protocol: Indeed, if the proteasomes are inhibited, in particular the proteasome 26S, the degradation of ubiquitinalyted proteins should be blocked, and those proteins should accumulate.
240 000 HEK-293 cells were incubated for 16 h, in presence of oxadiazole derivatives at the concentration of 10 μM.
After extraction of the proteins (centrifugation of lysed cells), the concentration of proteins in the sample was determined with the BCA (Bicinchoninic Acid) protein Assay.
3 μg of proteins for each sample were deposited into a SDS-PAGE gel at 8%.

human cathepsin B = human cathepsin B (Homo sapiens, UniProt P07858); experiment: Selectivity: inhibition of cathepsin B; assay type: biochemical; details: 100 μM compound

Chain of rabbit reticulocyte 20S proteasome, post-acid (PA) activity (G1T235 entry or part of it): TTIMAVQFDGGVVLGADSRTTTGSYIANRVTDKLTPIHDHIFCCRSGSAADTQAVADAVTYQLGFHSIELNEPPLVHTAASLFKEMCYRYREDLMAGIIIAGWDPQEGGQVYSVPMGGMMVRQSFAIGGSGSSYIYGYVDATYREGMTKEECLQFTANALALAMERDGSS

## Cc1ccc(-c2noc(CN(C(=O)COc3ccc(C(C)C)cc3)C(C)C)n2)cc1 [Compound 1]
[1]
  Inhibition of trypsin-like activity (NI): NI
[2]
  Inhibition of post-acid activity (NI): NI
[3]
  IC50: ~7 µM
HeLa cells
  EC50: 44 ± 3.8 µM

## CC(C)N(Cc1nc(CCl)no1)C(=O)COc1ccc(Br)cc1 [Compound 31]
[4]
  IC50: 2.69 ± 0.22 µM
[5]
  Inhibition of post-acid activity (NI): NI
HEK-293 cells
  EC50: 16.1 ± 0.5 µM
[6]
  Inhibition of trypsin-like activity (NI): NI

## C=CCOc1ccc(C(=O)N(Cc2nc(-c3ccc(OC)c(OC)c3)no2)C(C)C)cc1 [Compound 19]
[1]; 100 μM compound, fold activation
  Activation × of trypsin-like activity: Activation × 11.5 (100 μM)
HEK-293 cells
  EC50: 39.2 ± 2 µM
[2]
  Inhibition of post-acid activity (NI): NI
[7]
  IC50: 3.51 ± 0.12 µM

## CC(C)C[C@@H](C=O)NC(=O)[C@H](CC(C)C)NC(=O)[C@H](CC(C)C)NC(=O)OCc1ccccc1 [MG132] (Cbz-Leu-Leu-Leu-aldehyde)
[8]
  Accumulation of ubiquitinylated proteins (anti-ubiquitin Western blot): induce an accumulation of ubiquitinalyted proteins

## O=C(Cc1cccc2ccccc12)Nc1cccc(-c2nnc(-c3ccccc3)o2)c1 [Compound 21]
[1]
  Inhibition of trypsin-like activity (NI): NI
HEK-293 cells
  EC50: 26 ± 2.3 µM
[2]; 100 μM inhibitor, read-out: % inhibition (inhibitor concentration) on post-acid activity
  inhibition at 100 µM: 22%
[7]
  IC50: 144 ± 22 µM

## COc1ccc(-c2noc(CN(C(=O)COc3cccc(C)c3)C(C)C)n2)cc1 [Compound 13]
[1]; 100 μM inhibitor
  % inhibition (inhibitor concentration) on trypsin-like activity: 28% (100 μM)
Human cathepsin B
  Inhibition of human cathepsin B (in words): no inhibition
[2]
  Inhibition of post-acid activity (NI): NI
[3]
  IC50: 2.33 ± 0.28 µM

## Cc1cccc(-c2noc(CN(C(=O)COc3ccc(C(C)C)cc3)C(C)C)n2)c1 [Compound 2]
[1]
  Inhibition of trypsin-like activity (NI): NI
[2]
  Inhibition of post-acid activity (NI): NI
[3]
  IC50: ~1 µM
HeLa cells
  EC50: 32 ± 3.6 µM
